Source: US20090062401A1, “DECALINE-DERIVED COMPOUNDS AS […] ACTIVE AGENTS” (UNIVERSITAT DORTMUND, priority 2004, published 2009)
Like-named read-outs stand apart in the source and are kept apart here.

Tests used:
[1] = molecular target: T1, Cdc25A (Homo sapiens, UniProt P30304); assay: Cdc25A phosphatase inhibition; format: biochemical
T1 sequence (P30304 1-524): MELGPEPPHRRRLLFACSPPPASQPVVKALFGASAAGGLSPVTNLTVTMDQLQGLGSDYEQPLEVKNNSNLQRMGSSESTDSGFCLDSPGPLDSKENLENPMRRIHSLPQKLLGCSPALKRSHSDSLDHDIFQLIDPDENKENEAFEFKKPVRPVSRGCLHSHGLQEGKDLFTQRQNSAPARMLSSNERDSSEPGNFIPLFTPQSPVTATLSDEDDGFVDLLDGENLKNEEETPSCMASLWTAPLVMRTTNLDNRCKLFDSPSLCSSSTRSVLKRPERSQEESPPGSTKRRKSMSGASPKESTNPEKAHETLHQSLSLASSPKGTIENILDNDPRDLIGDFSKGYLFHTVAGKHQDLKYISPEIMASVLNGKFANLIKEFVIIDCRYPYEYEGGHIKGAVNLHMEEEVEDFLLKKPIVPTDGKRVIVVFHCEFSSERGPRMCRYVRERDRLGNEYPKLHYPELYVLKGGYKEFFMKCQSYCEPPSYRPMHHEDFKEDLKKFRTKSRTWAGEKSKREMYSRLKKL
Text: (§1) Assay protocols for Cdc25A, 11βHSD1, 11βHSD2, and AChE are described in detain in the publication of Koch M A, Wittenberg L O, Basu S, Jeyaraj D A, Gourzoulidou E, Reinecke K, Odermatt A, Waldmann H (Proc. Natl. Acad. Sci. U.S.A. 2004 Nov. 30; 101(48):16721-6) and in Koch M A et al., Proc. Natl. Acad. Sci. U.S.A. 2005 Nov. 29; 102 (48):17272-7.

[2] = molecular target: 11beta-HSD1 (Homo sapiens, UniProt P28845); assay: biochemical; conditions: read-out: IC50 Target 11beta-HSD1
Text: as §1

[3] = molecular target: T2, PTP1B (Homo sapiens, UniProt P18031); assay: PTP1B phosphatase inhibition, general phosphatase assay using para-nitrophenylphosphate; format: biochemical
T2 sequence (P18031 1-435): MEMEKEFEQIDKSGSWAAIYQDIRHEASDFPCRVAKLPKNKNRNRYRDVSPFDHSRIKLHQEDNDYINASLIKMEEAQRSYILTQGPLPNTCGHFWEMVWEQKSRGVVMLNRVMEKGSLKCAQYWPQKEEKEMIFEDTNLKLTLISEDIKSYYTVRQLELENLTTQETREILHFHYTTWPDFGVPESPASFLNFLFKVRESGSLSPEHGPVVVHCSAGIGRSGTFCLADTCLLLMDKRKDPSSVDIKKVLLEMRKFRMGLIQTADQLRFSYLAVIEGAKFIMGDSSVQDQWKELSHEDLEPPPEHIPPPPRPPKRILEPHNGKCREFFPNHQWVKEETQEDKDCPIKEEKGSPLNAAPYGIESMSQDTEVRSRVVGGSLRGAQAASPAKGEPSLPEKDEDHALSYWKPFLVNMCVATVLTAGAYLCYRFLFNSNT
Text: (§2) Assays protocols for the other enzymes mentioned herein (MtPTPA, PP1, VHR, PTP1B) are disclosed in Schweizer R A S, Atanasov, G A, Frey B M, and Odermatt A, Mol. Cell. Endocrinol. 2003, 212, 41-49 and Barratte, B., Meijer L., Galaktionov K. & Beach D, Anticancer Res. 1992, 12, 873-880. For determination of the phosphatase activity, a general phosphatase assay using para-nitrophenylphosphate was applied.

[4] = molecular target: PP1; assay: PP1 phosphatase inhibition, general phosphatase assay using para-nitrophenylphosphate; format: biochemical; conditions: read-out: IC50 Target PP1
Text: as §2

[5] = molecular target: MPTPA (Mycobacterium tuberculosis, UniProt P9WIA1); assay: MtPTPA phosphatase inhibition, general phosphatase assay using para-nitrophenylphosphate; format: biochemical
Text: as §2

[6] = molecular target: VHR (Homo sapiens, UniProt P51452); assay: VHR phosphatase inhibition, general phosphatase assay using para-nitrophenylphosphate; format: biochemical; conditions: read-out: IC50 Target VHR
Text: as §2

Sequence of MPTPA (P9WIA1 whole entry): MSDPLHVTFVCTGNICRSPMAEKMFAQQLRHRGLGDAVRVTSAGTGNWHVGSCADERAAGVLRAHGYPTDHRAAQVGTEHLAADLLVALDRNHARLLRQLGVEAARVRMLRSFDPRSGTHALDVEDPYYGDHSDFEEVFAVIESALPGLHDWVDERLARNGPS
Sequence of VHR (P51452 whole entry, species assumed): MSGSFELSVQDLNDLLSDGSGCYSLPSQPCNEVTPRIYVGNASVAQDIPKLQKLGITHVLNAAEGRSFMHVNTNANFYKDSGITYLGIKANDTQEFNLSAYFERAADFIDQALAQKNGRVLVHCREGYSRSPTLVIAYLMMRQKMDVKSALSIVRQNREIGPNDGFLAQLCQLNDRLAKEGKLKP
Sequence of 11beta-HSD1 (P28845 whole entry): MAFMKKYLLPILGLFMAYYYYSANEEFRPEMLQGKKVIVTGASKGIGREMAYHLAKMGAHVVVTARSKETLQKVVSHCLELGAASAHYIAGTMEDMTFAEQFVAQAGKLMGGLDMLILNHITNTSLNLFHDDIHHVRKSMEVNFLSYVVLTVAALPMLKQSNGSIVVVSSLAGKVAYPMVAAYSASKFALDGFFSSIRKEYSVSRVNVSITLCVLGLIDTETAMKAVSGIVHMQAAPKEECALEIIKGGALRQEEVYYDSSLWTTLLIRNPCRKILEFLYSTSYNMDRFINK

Row | Compound | IC50 ([3]; read-out: IC50 Target PTP1B) [µM] | IC50 [4] [µM] | IC50 [6] [µM] | IC50 ([5]; read-out: IC50 Target MPTPA) [µM] | also measured
1 | CC1=C2CCC[C@H](O)[C@@]2(C)C/C(=C\c2cc3ccccc3o2)C1=O [Compound 4, (3E,4aS,5S)-3-[(Benzofuran-2-yl)methylen]-4,4a,5,6,7,8-hexahydro-5-hydroxy-1,4a-dimethyl-naphthalen-2(3H)-one] | 10 to 50 | 10 to 50 |  |  | IC50 ([1]; read-out: IC50 Target Cdc25A): 10 to 50 µM; IC50 [2]: < 10 µM
2 | CC1=C2CCC[C@H](O)[C@@]2(C)C/C(=C\c2cc(Cl)cs2)C1=O [Compound 12, (3E,4aS,5S)-3-[(4-Chlorthiophen-2-yl)methylen]-4,4a,5,6,7,8-hexahydro-5-hydroxy-1,4a-dimethylnaphthalen-2(3H)-one] | 10 to 50 | 10 to 50 |  |  | IC50 [2]: < 10 µM
3 | CC1=C2CCC[C@H](O)[C@@]2(C)C/C(=C\c2ccc([N+](=O)[O-])cc2)C1=O [Compound 17, (3E,4aS,5S)-3-(4-Nitrobenzyliden)-4,4a,5,6,7,8-hexahydro-5-hydroxy-1,4a-dimethylnaphthalen-2(3H)-one] | 10 to 50 | 10 to 50 |  |  | 
4 | COc1ccc(/C=C2\C[C@@]3(C)C(=C(C)C2=O)CCC[C@@H]3O)cc1 [Compound 24, (3E,4aS,5S)-3-(4-Methoxybenzyliden)-4,4a,5,6,7,8-hexahydro-5-hydroxy-1,4a-dimethylnaphthalen-2(3H)-on] | 10 to 50 |  | 10 to 50 |  | IC50 [5]: 10 to 50 µM; IC50 ([1]; read-out: IC50 Target Cdc25A): 10 to 50 µM; IC50 [2]: < 10 µM
5 | CC1=C2CC/C(=C\c3ccco3)C(=O)[C@@]2(C)CCC1O (stereo partly drawn) [Compound 25, (2E,8aS)-2-[(Furan-2-yl)methylen]-3,4,6,7,8,8a-hexahydro-6-hydroxy-5,8a-dimethylnaphthalen-1(2H)-one] |  | 10 to 50 | 10 to 50 | 10 to 50 | 
6 | CC(=O)Oc1cccc(/C=C2\C[C@@]3(C)C(=C(C)C2=O)CCC[C@@H]3O)c1 [Compound 26, 3-{(1E)-[(4S,4aS)-1,2,3,4,4a,5-Hexahydro-4-hydroxy-4a,8-dimethyl-7-oxonaphthalen-6(7H)-yliden]methyl}phenylacetat] | 10 to 50 | 10 to 50 | 10 to 50 |  | IC50 [2]: < 10 µM
7 | CCCCCCCCCCC#Cc1ccc(/C=C2\C[C@@]3(C)C(=C(C)C2=O)CCC[C@@H]3O)cc1 [Compound 45, (3E,4aS,5S)-3-[4-(Dodec-1-inyl)benzyliden]-4,4a,5,6,7,8-hexahydro-5-hydroxy-1,4a-dimethyl-naphthalen-2(3H)-on] | 10 to 50 | < 10 | 10 to 50 |  | 
8 | CC1=C2CCCC(O)C2(C)CC(=Cc2ccc(C#CCCCC#N)cc2)C1=O [Compound 47, 6-{4-{(1E)-[(43,4aS)-1,2,3,4,4a,5-Hexahydro-4-hydroxy-4a,8-dimethyl-7-oxonaphthalen-6(7H)-yliden]-methyl}phenyl}hex-5-in-nitril] | 10 to 50 | < 10 | 10 to 50 |  | IC50 ([1]; read-out: IC50 Target Cdc25A): 10 to 50 µM
9 | CC1=C2CCC[C@H](O)[C@@]2(C)C/C(=C\c2ccc(C#Cc3cccc(F)c3)cc2)C1=O [Compound 49, (3E,4aS,5S)-3-{4-[2-(3-Fluorphenyl)ethinyl]benzyliden}-4,4a,5,6,7,8-hexahydro-5-hydroxy-1,4a-dimethylnaphthalen-2(3H)-one] |  | < 10 | 10 to 50 |  | IC50 ([1]; read-out: IC50 Target Cdc25A): < 10 µM
10 | CC1=C2CCC[C@H](O)[C@@]2(C)C/C(=C\c2ccc(C#C[Si](C)(C)C)cc2)C1=O [Compound 53, (3E,4aS,5S)-3-{4-[2-(Trimethylsilyl)ethinyl]benzyliden}-4,4a,5,6,7,8-hexahydro-5-hydroxy-1,4a-dimethylnaphthalen-2(3H)-on] |  | 10 to 50 |  |  | IC50 [1]: 10 to 50 µM; IC50 [3]: 10 to 50 µM
11 | CC1=C2CCC[C@H](O)[C@@]2(C)C/C(=C\c2ccc(C#CCCO)cc2)C1=O [Compound 55, (3E,4aS,5S)-3-[4-(4-Hydroxybut-1-inyl)benzyliden]-4,4a,5,6,7,8-hexahydro-5-hydroxy-1,4a-dimethylnaphthalen-2(3H)-one] | 10 to 50 |  | 10 to 50 |  | IC50 [5]: 10 to 50 µM; IC50 ([1]; read-out: IC50 Target Cdc25A): < 10 µM
12 | C=C(C)C#Cc1ccc(/C=C2\C[C@@]3(C)C(=C(C)C2=O)CCC[C@@H]3O)cc1 [Compound 56, (3E,4aS,5S)-3-[4-(3-Methylbut-3-en-1-inyl)benzyliden]-4,4a,5,6,7,8-hexahydro-5-hydroxy-1,4a-dimethylnaphthalen-2(3H)-on] | 10 to 50 |  | 10 to 50 |  | IC50 [5]: 10 to 50 µM
13 | CCCC#Cc1ccc(/C=C2\C[C@@]3(Cc4ccccc4)C(=C(C)C2=O)CCC[C@@H]3O)cc1 [Compound 130, (3E,4aS,5S)-3-[4-(Pent-1-inyl)benzyliden]-4a-benzyl-4,4a,5,6,7,8-hexahydro-5-hydroxy-1-methylnaphthalen-2(3H)-one] |  |  | 10 to 50 | 10 to 50 | 
14 | CCCCCCCCCC#Cc1ccc(/C=C2\C[C@@]3(C)C(CCC[C@@H]3O)C(C)C2=O)cc1 (stereo partly drawn) [Compound 131, (E,4aS,5S)-3-[4-(Undec-1-inyl)benzyliden]-octahydro-5-hydroxy-1,4a-dimethylnaphthalen-2(1H)-one] |  |  | 10 to 50 | 10 to 50 | 
15 | CCCCCCCCCCCCC#Cc1ccc(/C=C2\C[C@@]3(C)C(CCC[C@@H]3O)C(C)C2=O)cc1 (stereo partly drawn) [Compound 133, (E,4aS,5S)-3-[4-(Tetradec-1-inyl)benzyliden]-octahydro-5-hydroxy-1,4a-dimethylnaphthalen-2(1H)-one] |  |  | 10 to 50 | 10 to 50 | 
16 | CCCCCCCCCCCCC#Cc1ccc(/C=C2\C[C@@]3(Cc4ccccc4)C(=C(C)C2=O)CCC[C@@H]3O)cc1 [Compound 134, (3E,4aS,5S)-3-[4-(Tetradec-1-inyl)benzyliden]-4a-benzyl-4,4a,5,6,7,8-hexahydro-5-hydroxy-1-methylnaphthalen-2(3H)-one] |  |  | 10 to 50 | 10 to 50 | 
17 | CC1=C(/C=C2\C[C@@]3(C)C(CCC[C@@H]3O)C(C)C2=O)NCC1 (stereo partly drawn) [Compound 158, (3E,4aS,5S)-Octahydro-3-[(4,5-dihydro-3-methyl-1H-pyrrol-2-yl)methylen]-5-hydroxy-1,4a-dimethylnaphthalen-2(1H)-one] | 10 to 50 |  | 10 to 50 | 10 to 50 | 
18 | CC1=C2CCC[C@H](O)[C@@]2(C)CC(=Cc2ccc(C#CCN(C)C)cc2)C1=O [Compound 396, (4aS,5S)-3-[4-(3-Dimethylamino-prop-1-ynyl)-benzylidene]-5-hydroxy-1,4a-dimethyl-4,4a,5,6,7,8-hexahydro-3H-naphthalen-2-one] | 10 to 50 |  | 10 to 50 |  | IC50 [5]: 10 to 50 µM
19 | CC1(CCCc2ccccc2)C(=O)CC[C@@]2(C)C1CCC[C@@H]2O (stereo partly drawn) [Compound 397, (4aS,5S)-5-Hydroxy-1,4a-dimethyl-1-(3-phenyl-propyl)-octahydro-naphthalen-2-one] |  | 10 to 50 | 10 to 50 |  | IC50 ([1]; read-out: IC50 Target Cdc25A): 10 to 50 µM
20 | C/C=C1\CC[C@@]2(C)C(=C1C)CCC[C@@H]2O [Compound 411, (2E,4aS,5S)-6-Ethylidene-5,8a-dimethyl-1,2,3,4,6,7,8,8a-octahydro-naphthalen-1-ol] |  | 10 to 50 |  |  | 
21 | CCC(c1ccc(I)cc1)C1C[C@@]2(C)C(=C(C)C1=O)CCC[C@@H]2O (stereo partly drawn) [Compound 412, (4aS,5S)-5-Hydroxy-3-[1-(4-iodo-phenyl)-propyl]-1,4a-dimethyl-4,4a,5,6,7,8-hexahydro-3H-naphthalen-2-one] | 10 to 50 |  | 10 to 50 | 10 to 50 | 
22 | CC1=C2CCC[C@H](O)[C@@]2(C)CCC1=O [Compound 413, (4aS,5S)-5-Hydroxy-1,4a-dimethyl-4,4a,5,6,7,8-hexahydro-3H-naphthalen-2-one] | 10 to 50 |  | 10 to 50 | 10 to 50 | 
